According to patent US11352354B2, “Substituted penta-fused hexa-heterocyclic compounds, preparation method therefor, drug combination and use thereof” (Xiamen University, priority 2017, dated 2022):
Entries after “also recorded” stand apart in the source; their conditions may differ.

Tests used:
[1] = target: PIKfyve protein (Homo sapiens (Human), UniProt Q9Y2I7); assay: Dissociation equilibrium constant (Kd) of compound and PIKfyve protein, DiscoverX KINOMEscan; assay type: binding; conditions: eleven 3-fold dilutions, curve fitting
Protocol: II. Determination of Dissociation Equilibrium Constant (Kd Value) of Compound and PIKfyve Protein
The Kd value was determined by DiscoverX's KINOMEscan™ technology according to the following steps:
1. Preparation of magnetic beads: biotin-labeled small molecule ligand and avidin-coated magnetic beads were allowed to interact at room temperature for 30 minutes, and then added with excess biotin, followed by washing with a blocking solution (1% BSA, 0.05% Tween 20, 1 mM DTT) to remove unbound ligand.
2. Binding reaction: in a 384 plate, 0.02 mL system, DNA-labeled protein, small molecule ligand-bound magnetic beads, and different concentrations of compound to be tested were mixed in a reaction solution (0.17×PBS, 0.05% Tween 20, 6 mM DTT) at room temperature with shaking for 1 hr, to which was added an eluant (1×PBS, 0.05% Tween 20) for elution. Magnetic beads were resuspended by an eluant (1×PBS, 0.05% Tween 20, 0.5 μM non-biotin-labeled small molecule ligand), and shaken at room temperature for 30 min before separating out the eluant.
3. Determination of Kd value: the content of protein in the above eluate was determined by qPCR. Eleven 3-fold dilution concentrations were determined for the compound to be tested, with 3 DMSO controls for each concentration, and the Kd value was obtained by curve fitting.

[2] = test system: JeKo-1 cells; assay: Tumor cell growth inhibition by MTS method, JeKo-1; assay type: cell-based; conditions: Homo sapiens, JeKo-1, 120 h, 5 days of culture
How it was run: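 Cells seeded at 20000 per well, treated with 8-point 3-fold dilutions from 10 mM DMSO stock in triplicate, 0.1% DMSO controls. MTS read at OD490; IC50 from inhibition rates, or % inhibition at 10 μM.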

[3] = test system: JeKo-1 cells; assay: Lysosomal dysfunction caused by inhibition of PIKfyve, Western Blot of cathepsins in JeKo-1 cells; assay type: cell-based; conditions: treatment for 24 hr, FIG. 3
Text: V. Lysosomal Dysfunction Caused by Inhibition of Compound V-c-17 on PIKfyve (FIG. 3)
After treatment with V-c-17 for 24 hr, JeKo-1 cells were lysed and tested by Western Blot. […] This was similar to the treatment result with the known PIKfyve inhibitor apilimod.

[4] = test system: MDA-MB-231 cells; assay: Vacuolation of MDA-MB-231 cells caused by inhibition of compounds on PIKfyve (microscopy); assay type: cell-based; conditions: MDA-MB-231 cells; further: key: '+' represents the degree of vacuolation; ++: more '+' indicates more obvious vacuolation; +++: more '+' indicates more obvious vacuolation; ++++: more '+' indicates more obvious vacuolation; '−' represents no vacuolation
How it was run: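 MDA-MB-231 cells in 12-well plates at 37 °C, 5% CO2 were observed by microscopy after 24 and 48 h of culture for cytoplasmic vacuolation as a readout of PIKfyve inhibition. Scoring was semi-quantitative, from − (none) to increasing +.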

[5] = test system: Toledo cells; assay: Growth inhibition of PIKfyve-mediated tumor cells by Cell Titer Glo method, Toledo; assay type: cell-based; conditions: Homo sapiens, 120 h, CellTiter-Glo, 5 days of culture, read-out: Inhibition rate % (Toledo)
Protocol: (§1) IV. Determination of Growth Inhibition Rates of Compounds Against PIKfyve-Mediated Tumor Cells by Cell Titer Glo Method
(§2) 1. Cell plating: cells in logarithmic growth phase were counted and inoculated in 384-well plate.
(§3) 3. […] RLU was measured on PHERAstar Plus.

[6] = test system: JeKo-1 xenograft; assay: Xenograft model of non-Hodgkin's lymphoma cells (JeKo-1) in nude mice; assay type: in vivo; conditions: 25 mg/kg once a day or twice a day
Protocol: 1. 4-6 weeks old female nude mice were injected subcutaneously with about 1×10^7 JeKo-1 cells;
2. When tumor volume (length×width×height×π/4) reached about 100 mm^3, the mice were randomly divided into four groups: control group, V-c-17 group with a dose of 25 mg/kg once a day, V-c-17 group with a dose of 25 mg/kg twice a day, and apilimod group with a dose of 25 mg/kg once a day, and the initial tumor volume was recorded.
3. The drug or the control solvent was administered intravenously on time every day, the tumor volume was measured every day, and the procedures were continued for 7 days;
(§4) 4. In the last day, the mice were killed 6 hours after administration, the tumor grown under skin was completely peeled off, and the tumor weight was recorded.

[7] = test system: ST486 cells; assay: Growth inhibition of PIKfyve-mediated tumor cells by Cell Titer Glo method, ST486; assay type: cell-based; conditions: Homo sapiens, 120 h, CellTiter-Glo, 5 days of culture, read-out: Inhibition rate % (ST486)
Protocol: as §1, §2, §3

[8] = test system: MDA-MB-231; assay: Tumor cell growth inhibition by MTS method, MDA-MB-231; assay type: cell-based; conditions: Homo sapiens; MDA-MB-231, 3.3 μM; read-out: Inhibition rate %
Protocol: (§5) III. Determination of IC50 Value of Compound for Inhibiting Tumor Cell Growth by MTS Method
(§6) 1. Cell plating: cells in logarithmic growth phase were counted and inoculated in a 96-well plate (20000 cells per well).
(§7) 2. Administrating agent to cell: 10 mM compound mother solution in DMSO was subjected to 3 fold-gradient dilution, to set 8 concentrations, which were then added to various wells, with three replicates for each concentration, and three blank wells (only culture medium) and three negative controls (containing 0.1% DMSO) on each plate.
(§8) 3. […] The OD value at 490 nm was measured with microplate reader OD490. The cell growth inhibition rate was calculated by the following formula: Cell growth inhibition rate %=1−(ODexperimental group−ODblank group)/(ODnegative group−ODblank group)×100%

[9] = test system: MDA-MB-231 xenograft; assay: Xenograft model of triple negative breast cancer cells (MDA-MB-231) in nude mice; assay type: in vivo
Protocol: 1. 4-6 weeks old female nude mice were injected subcutaneously with about 5×10^6 MDA-MB-231 cells;
2. When tumor volume (length×width×height×0.5) reached about 100 mm^3, the mice were randomly divided into three groups: control group, group with a dose of 5 mg/kg once a day, and group with a dose of 20 mg/kg once a day, and the initial tumor volume was recorded.
3. The drug or the control solvent was administered intravenously on time every day, the tumor volume was measured every day, and the procedures were continued for 12 days;
as §4

[10] = test system: MCF-7; assay: Tumor cell growth inhibition by MTS method, MCF-7; assay type: cell-based; conditions: Homo sapiens, MCF7; MCF-7, 3.3 μM; read-out: Inhibition rate %
Protocol: as §5, §6, §7, §8

[11] = test system: HepG2; assay: Tumor cell growth inhibition by MTS method, HepG2; assay type: cell-based; conditions: Homo sapiens; HepG2, 3.3 μM; read-out: Inhibition rate %
Protocol: as §5, §6, §7, §8

[12] = test system: SK-MEL-30; assay: Tumor cell growth inhibition by MTS method, SK-MEL-30; assay type: cell-based; conditions: Homo sapiens; SK-MEL-30, 3.3 μM; read-out: Inhibition rate %
Protocol: as §5, §6, §7, §8

[13] = test system: MDA-MB-435S; assay: Tumor cell growth inhibition by MTS method, MDA-MB-435S; assay type: cell-based; conditions: Homo sapiens, read-out: Inhibition rate %
Protocol: as §5, §6, §7, §8

[14] = test system: SK-MEL-28; assay: Tumor cell growth inhibition by MTS method, SK-MEL-28; assay type: cell-based; conditions: Homo sapiens; SK-MEL-28, 3.3 μM; read-out: Inhibition rate %
Protocol: as §5, §6, §7, §8

[15] = test system: HCT116; assay: Tumor cell growth inhibition by MTS method, HCT116; assay type: cell-based; conditions: Homo sapiens, HCT-116; HCT116, 3.3 μM; read-out: Inhibition rate %
Protocol: as §5, §6, §7, §8

[16] = test system: BGC823; assay: Tumor cell growth inhibition by MTS method, BGC823; assay type: cell-based; conditions: Homo sapiens, BGC-823; BGC823, 3.3 μM; read-out: Inhibition rate %
Protocol: as §5, §6, §7, §8

[17] = test system: A549; assay: Tumor cell growth inhibition by MTS method, A549; assay type: cell-based; conditions: Homo sapiens; A549, 3.3 μM; read-out: Inhibition rate %
Protocol: as §5, §6, §7, §8

[18] = test system: A375; assay: Tumor cell growth inhibition by MTS method, A375; assay type: cell-based; conditions: Homo sapiens, A-375; A375, 3.3 μM; read-out: Inhibition rate %
Protocol: as §5, §6, §7, §8

PIKfyve protein, sequence (Q9Y2I7 whole entry): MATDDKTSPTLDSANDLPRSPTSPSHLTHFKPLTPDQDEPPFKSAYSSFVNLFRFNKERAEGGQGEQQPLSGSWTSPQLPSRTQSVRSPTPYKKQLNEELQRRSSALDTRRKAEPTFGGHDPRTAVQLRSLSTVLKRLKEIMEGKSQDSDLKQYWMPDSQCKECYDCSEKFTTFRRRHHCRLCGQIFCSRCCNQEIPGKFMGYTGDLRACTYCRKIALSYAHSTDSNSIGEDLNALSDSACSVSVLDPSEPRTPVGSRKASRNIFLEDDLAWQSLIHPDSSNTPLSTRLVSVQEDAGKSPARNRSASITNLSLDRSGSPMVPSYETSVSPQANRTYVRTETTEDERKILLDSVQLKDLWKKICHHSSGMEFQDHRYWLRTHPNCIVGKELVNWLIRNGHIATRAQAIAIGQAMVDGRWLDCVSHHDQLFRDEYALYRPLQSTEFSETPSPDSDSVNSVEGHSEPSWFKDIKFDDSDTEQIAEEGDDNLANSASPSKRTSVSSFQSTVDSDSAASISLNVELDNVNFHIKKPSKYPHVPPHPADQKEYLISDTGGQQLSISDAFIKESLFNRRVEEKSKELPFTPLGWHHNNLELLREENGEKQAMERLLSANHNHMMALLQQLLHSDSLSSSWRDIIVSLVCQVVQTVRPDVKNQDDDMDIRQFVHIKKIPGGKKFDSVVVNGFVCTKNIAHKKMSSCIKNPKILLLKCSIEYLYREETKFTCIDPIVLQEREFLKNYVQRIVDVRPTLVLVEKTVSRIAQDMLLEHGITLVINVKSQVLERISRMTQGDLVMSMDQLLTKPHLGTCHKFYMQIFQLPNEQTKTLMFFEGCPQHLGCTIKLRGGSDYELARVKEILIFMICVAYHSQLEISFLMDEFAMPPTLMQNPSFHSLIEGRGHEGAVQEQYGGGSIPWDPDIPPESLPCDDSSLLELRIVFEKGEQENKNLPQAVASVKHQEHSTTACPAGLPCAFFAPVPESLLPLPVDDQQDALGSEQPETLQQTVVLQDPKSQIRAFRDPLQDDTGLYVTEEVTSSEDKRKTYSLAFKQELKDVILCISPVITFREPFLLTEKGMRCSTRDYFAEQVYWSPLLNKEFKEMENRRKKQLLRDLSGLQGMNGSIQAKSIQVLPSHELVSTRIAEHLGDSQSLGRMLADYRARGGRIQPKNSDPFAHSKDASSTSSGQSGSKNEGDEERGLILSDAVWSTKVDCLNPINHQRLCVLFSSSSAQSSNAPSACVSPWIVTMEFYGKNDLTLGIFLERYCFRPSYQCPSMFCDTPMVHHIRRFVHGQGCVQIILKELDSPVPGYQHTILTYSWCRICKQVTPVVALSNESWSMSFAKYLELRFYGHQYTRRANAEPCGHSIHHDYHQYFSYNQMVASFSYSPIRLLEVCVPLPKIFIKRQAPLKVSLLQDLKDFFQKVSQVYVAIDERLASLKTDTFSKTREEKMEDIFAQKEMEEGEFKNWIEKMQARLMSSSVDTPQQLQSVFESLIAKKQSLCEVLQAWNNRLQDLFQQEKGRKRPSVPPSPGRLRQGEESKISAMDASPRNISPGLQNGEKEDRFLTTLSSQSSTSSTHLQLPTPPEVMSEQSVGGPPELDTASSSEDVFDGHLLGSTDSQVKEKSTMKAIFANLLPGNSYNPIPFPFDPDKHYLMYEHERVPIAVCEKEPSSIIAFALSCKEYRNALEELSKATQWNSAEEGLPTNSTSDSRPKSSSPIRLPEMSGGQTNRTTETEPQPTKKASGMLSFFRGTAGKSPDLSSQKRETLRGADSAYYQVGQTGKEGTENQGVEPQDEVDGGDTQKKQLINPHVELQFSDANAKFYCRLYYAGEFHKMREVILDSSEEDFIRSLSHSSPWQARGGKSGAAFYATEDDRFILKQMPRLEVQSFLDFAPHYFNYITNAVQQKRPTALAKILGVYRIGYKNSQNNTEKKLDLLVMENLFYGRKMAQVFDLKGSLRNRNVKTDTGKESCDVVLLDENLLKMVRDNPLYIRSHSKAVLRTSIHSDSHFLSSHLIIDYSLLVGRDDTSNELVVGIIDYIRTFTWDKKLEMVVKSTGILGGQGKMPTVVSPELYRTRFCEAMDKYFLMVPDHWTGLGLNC

Row | Compound | Kd [1] [µM] | IC50 [2] [µM] | immature cathepsin A and cathepsin D (Western Blot) [3] | degree of vacuolation, 1 μM, 24 h [4] | degree of vacuolation, 1 μM, 48 h [4] | degree of vacuolation, 10 μM, 24 h [4] | degree of vacuolation, 10 μM, 48 h [4] | inhibition at 3.3 µM [5] [%] | inhibition at 3.3 µM [7] [%] | further results
1 | COc1ccc(C(=O)Nc2cccc(C(F)(F)F)c2)cc1Nc1nc(-c2cccnc2)c2[nH]ccc2n1 [V-c-17] | 0.64 | 0.743 | immature cathepsins A and D gradually increase, with good dose dependence; also recorded: immature cathepsin A and cathepsin D increased, and had good concentration dependence | ++ | − | ++ | + | 99.7 | 95.7 | tumor volume ([6]; JeKo-1 xenograft mice, tail vein, FIG. 5a): effectively inhibit the increase of tumor volume, with good dose dependence; final tumor weight ([6]; JeKo-1 xenograft mice, tail vein, FIG. 5b): significantly smaller than that in the control group, with good dose dependence; tumor growth ([6]; JeKo-1 xenograft, nude mice, intravenous, 7 days, FIG. 5): Effectively Inhibited Tumor Growth
2 | Cc1ccc(NC(=O)c2cccc(C(F)(F)F)c2)cc1Nc1cc(-c2cccnc2)nc2[nH]ccc12 [I-a-1] |  | 2.04 |  | +++ | +++ | +++ | +++ |  |  | inhibition at 3.3 µM [8]: 48.4%; tumor volume ([9]; MDA-MB-231 xenograft mice, tail vein, 5 mg/kg, 20 mg/kg every day, FIG. 4a): effectively inhibit the increase of tumor volume, with good dose dependence; final tumor weight ([9]; MDA-MB-231 xenograft mice, tail vein, 5 mg/kg, 20 mg/kg every day, FIG. 4b): significantly smaller than that in the control group, with good dose dependence; tumor growth ([9]; MDA-MB-231 xenograft, nude mice, intravenous, 5 mg/kg and 20 mg/kg once a day, 12 days, FIG. 4): Effectively Inhibited Tumor Growth; inhibition at 3.3 µM [10]: 44.2%; inhibition at 3.3 µM [11]: 64.8%; inhibition at 3.3 µM [12]: 61.9%; inhibition at 3.3 µM [13]: 56.2%; inhibition at 3.3 µM [14]: 64%; inhibition at 3.3 µM [15]: 55.8%; inhibition at 3.3 µM [16]: 54%; inhibition at 3.3 µM [17]: 65.3%; inhibition at 3.3 µM [18]: 94%
3 | Cc1cccc(/C=N/Nc2cc(N3CCOCC3)nc(OCCc3ccccn3)n2)c1 [apilimod, reference compound] |  |  | immature cathepsins A and D gradually increase, with good dose dependence |  |  |  |  |  |  | 
4 | Cc1ccc(C(=O)Nc2cccc(NS(C)(=O)=O)c2)cc1Nc1nc(-c2cccnc2)c2[nH]ccc2n1 [V-c-6] | 0.016 | 4.95 |  | + | ++ | +++ | +++ | 93.9 | 69.9 | 
